From ChEMBL document CHEMBL3045082, “Novel quinazolinone derivatives: synthesis and antimicrobial activity” (2013)
In brackets after ≈: the same amount, converted by molar mass. Activity calls are given as the source filed them. No cut-off for these calls is given here.

Tests used:
[1] = test system: Pseudomonas savastanoi pv. phaseolicola; assay: Antimicrobial activity against Pseudomonas syringae pv. phaseolicola GSPB 2828 assessed as diameter of growth inhibition zone at 1 mg/ml after 24 hr by agar diffusion method; assay type: functional; details: GSPB 2828, 24 h, read-out: DIZ
[2] = test system: Aspergillus fumigatus; assay: Antimicrobial activity against Aspergillus fumigatus assessed as diameter of growth inhibition zone at 1 mg/ml by agar diffusion method; details: read-out: DIZ
[3] = test system: Fusarium oxysporum; assay: Antimicrobial activity against Fusarium oxysporum assessed as diameter of growth inhibition zone at 1 mg/ml […] by agar diffusion method; assay type: functional; details: read-out: DIZ
[4] = test system: Streptococcus pyogenes; assay: Antimicrobial activity against Streptococcus pyogenes ATCC 19615 assessed as growth inhibition after 24 to 48 hr by two-fold serial dilution method; assay type: functional
[5] = test system: Staphylococcus aureus; assay: Antimicrobial activity against Staphylococcus aureus ATCC 25923 assessed as growth inhibition after 24 to 48 hr by two-fold serial dilution method; assay type: functional
[6] = test system: Fusarium oxysporum; assay: Antimicrobial activity against Fusarium oxysporum assessed as growth inhibition after 24 to 48 hr by two-fold serial dilution method; assay type: functional
[7] = test system: Streptococcus pyogenes; assay: Antimicrobial activity against Streptococcus pyogenes ATCC 19615 assessed as diameter of growth inhibition zone at 1 mg/ml after 24 hr by agar diffusion method; assay type: functional; details: ATCC 19615, 24 h, read-out: DIZ
[8] = test system: Pseudomonas fluorescens; assay: Antimicrobial activity against Pseudomonas fluorescens S 97 assessed as growth inhibition after 24 to 48 hr by two-fold serial dilution method; assay type: functional
[9] = test system: Pseudomonas fluorescens; assay: Antimicrobial activity against Pseudomonas fluorescens S 97 assessed as diameter of growth inhibition zone at 1 mg/ml after 24 hr by agar diffusion method; assay type: functional; details: S 97, 24 h, read-out: DIZ
[10] = test system: Staphylococcus aureus; assay: Antimicrobial activity against Staphylococcus aureus ATCC 25923 assessed as diameter of growth inhibition zone at 1 mg/ml after 24 hr by agar diffusion method; assay type: functional; details: ATCC 25923, 24 h, read-out: DIZ
[11] = test system: Aspergillus fumigatus; assay: Antimicrobial activity against Aspergillus fumigatus assessed as growth inhibition after 24 to 48 hr by two-fold serial dilution method; assay type: functional
[12] = test system: Pseudomonas savastanoi pv. phaseolicola; assay: Antimicrobial activity against Pseudomonas syringae pv. phaseolicola GSPB 2828 assessed as growth inhibition after 24 to 48 hr by two-fold serial dilution method; assay type: functional
[13] = test system: Streptococcus pyogenes; assay: Antimicrobial activity against Streptococcus pyogenes ATCC 19615 assessed as growth inhibition after 24 to 48 hr by two-fold serial dilution method relative to chloramphenicol; assay type: functional
[14] = test system: Staphylococcus aureus; assay: Antimicrobial activity against Staphylococcus aureus ATCC 25923 assessed as growth inhibition after 24 to 48 hr by two-fold serial dilution method relative to chloramphenicol; assay type: functional
[15] = test system: Staphylococcus aureus; assay: Antimicrobial activity against Staphylococcus aureus ATCC 25923 assessed as growth inhibition after 24 to 48 hr by two-fold serial dilution method relative to cephalothin; assay type: functional

SMILES	MIC [4] [µg/mL]	MIC [5] [µg/mL]	MIC [6] [µg/mL]	MIC [8]	MIC [11]	MIC [12] [µg/mL]	zone of inhibition at 1000 µg/mL [1] [mm]	zone of inhibition at 1000 µg/mL [2] [mm]	zone of inhibition at 1000 µg/mL [3] [mm]	zone of inhibition at 1000 µg/mL [7] [mm]	zone of inhibition at 1000 µg/mL [9] [mm]	zone of inhibition at 1000 µg/mL [10] [mm]	growth inhibition (GI) [13] [%]	growth inhibition (GI) [14] [%]	growth inhibition (GI) [15] [%]
Cc1ccc(S(=O)(=O)Oc2ccc(-c3nc4ccccc4c4nc(=S)[nH]n34)cc2)cc1	6.25 (≈ 13.9 µM)	3.12 (≈ 6.97 µM)	25 (≈ 55.7 µM)	50 µg/mL (≈ 111 µM)	–	–	15	14	26	37	19	44	–	–	–
C[C@@H]1C[C@@H]([C@H](O)CC2CC(=O)NC(=O)C2)C(=O)[C@@H](C)C1 [CYCLOHEXIMIDE]	–	–	3.12 (≈ 11.1 µM)	–	3.12 µg/mL (≈ 11.1 µM)	–	–	42	43	–	–	–	–	–	–
Cc1ccc(S(=O)(=O)Oc2ccc(-c3nc4ccccc4c(=O)n3-n3c(C)nc4ccccc4c3=O)cc2)cc1	–	50 (≈ 90.8 µM)	–	50 µg/mL (≈ 90.8 µM)	6.25 µg/mL (≈ 11.4 µM)	–	14	38	15	15	19	19	–	–	–
Cc1ccc(S(=O)(=O)Oc2ccc(C3=Nc4ccccc4C4=NCCN34)cc2)cc1	6.25 (≈ 15 µM)	25 (≈ 59.9 µM)	–	50 µg/mL (≈ 120 µM)	–	25 (≈ 59.9 µM)	26	14	15	37	19	25	–	–	–
Cc1ccc(S(=O)(=O)Oc2ccc(-c3nc4ccccc4c4nc5ccccc5n34)cc2)cc1	25 (≈ 53.7 µM)	25 (≈ 53.7 µM)	–	6.25 µg/mL (≈ 13.4 µM)	50 µg/mL (≈ 107 µM)	–	14	20	16	25	37	26	–	–	–
CC(=O)OCC1=C(C(=O)O)N2C(=O)[C@@H](NC(=O)Cc3cccs3)[C@H]2SC1 [CEPHALOTHIN]	6.25 (≈ 15.8 µM)	6.25 (≈ 15.8 µM)	–	6.25 µg/mL (≈ 15.8 µM)	–	6.25 (≈ 15.8 µM)	38	–	–	37	37	36	–	–	–
Cc1ccc(S(=O)(=O)Oc2ccc(-c3nc4ccccc4c4nc(=O)[nH]n34)cc2)cc1	–	–	50 (≈ 116 µM)	–	–	6.25 (≈ 14.5 µM)	38	15	19	15	15	15	–	–	–
Cc1ccc(S(=O)(=O)Oc2ccc(C(=O)Nc3ccccc3-c3nc4ccccc4[nH]3)cc2)cc1	25 (≈ 51.7 µM)	25 (≈ 51.7 µM)	–	–	inactive	50 (≈ 103 µM)	19	–	15	25	14	25	–	–	–
O=C(N[C@H](CO)[C@H](O)c1ccc([N+](=O)[O-])cc1)C(Cl)Cl [CHLORAMPHENICOL]	3.12 (≈ 9.67 µM)	3.12 (≈ 9.67 µM)	–	6.25 µg/mL (≈ 19.3 µM)	–	6.25 (≈ 19.3 µM)	37	–	–	44	38	42	–	–	–
Cc1ccc(S(=O)(=O)Oc2ccc(-c3nnnn3-c3ccccc3C(=O)O)cc2)cc1	6.25 (≈ 14.3 µM)	12.5 (≈ 28.6 µM)	50 (≈ 115 µM)	50 µg/mL (≈ 115 µM)	inactive	–	14	–	19	38	20	32	–	25	50

Continued, in another order:

MIC [4] [µg/mL]	MIC [5] [µg/mL]	MIC [6] [µg/mL]	MIC [8]	MIC [11]	MIC [12] [µg/mL]	SMILES	zone of inhibition at 1000 µg/mL [1] [mm]	zone of inhibition at 1000 µg/mL [2] [mm]	zone of inhibition at 1000 µg/mL [3] [mm]	zone of inhibition at 1000 µg/mL [7] [mm]	zone of inhibition at 1000 µg/mL [9] [mm]	zone of inhibition at 1000 µg/mL [10] [mm]	growth inhibition (GI) [13] [%]	growth inhibition (GI) [14] [%]	growth inhibition (GI) [15] [%]
6.25 (≈ 10.2 µM)	3.12 (≈ 5.1 µM)	–	inactive	12.5 µg/mL (≈ 20.4 µM)	50 (≈ 81.6 µM)	Cc1ccc(S(=O)(=O)Oc2ccc(-c3nc4ccccc4c(=O)n3-c3ccc(C4=NNC(c5ccccc5)C4)cc3)cc2)cc1 (centres undefined)	19	31	14	38	–	43	50	–	–
–	–	6.25 (≈ 12.9 µM)	50 µg/mL (≈ 103 µM)	25 µg/mL (≈ 51.7 µM)	–	Cc1ccc(S(=O)(=O)Oc2ccc(-c3nc4ccccc4c(=O)n3-c3ccc(N)cc3)cc2)cc1	15	26	37	15	18	14	–	–	–
6.25 (≈ 9.72 µM)	3.12 (≈ 4.86 µM)	–	inactive	12.5 µg/mL (≈ 19.4 µM)	50 (≈ 77.8 µM)	COc1ccc(C2CC(c3ccc(-n4c(-c5ccc(OS(=O)(=O)c6ccc(C)cc6)cc5)nc5ccccc5c4=O)cc3)=NN2)cc1 (centres undefined)	19	31	14	38	–	43	50	–	–
6.25 (≈ 11.9 µM)	6.25 (≈ 11.9 µM)	–	50 µg/mL (≈ 95.1 µM)	inactive	50 (≈ 95.1 µM)	Cc1ccc(S(=O)(=O)Oc2ccc(-c3nc4ccccc4c(=O)n3-c3nc4ccccc4s3)cc2)cc1	19	–	14	37	20	38	50	50	–
6.25 (≈ 13.1 µM)	6.25 (≈ 13.1 µM)	–	–	50 µg/mL (≈ 105 µM)	–	Cc1ccc(S(=O)(=O)Oc2ccc(-c3nc4ccccc4c(=O)n3-c3nccs3)cc2)cc1	14	19	15	38	16	38	50	50	–
6.25 (≈ 9.97 µM)	3.12 (≈ 4.99 µM)	–	inactive	12.5 µg/mL (≈ 19.9 µM)	50 (≈ 79.8 µM)	Cc1ccc(C2CC(c3ccc(-n4c(-c5ccc(OS(=O)(=O)c6ccc(C)cc6)cc5)nc5ccccc5c4=O)cc3)=NN2)cc1 (centres undefined)	19	31	14	38	–	43	50	–	–
–	12.5 (≈ 21.6 µM)	12.5 (≈ 21.6 µM)	–	–	50 (≈ 86.4 µM)	Cc1ccc(S(=O)(=O)Oc2ccc(-c3nc4ccccc4c(=O)n3C3=NNC(=O)C3/N=N/c3ccccc3)cc2)cc1 (centres undefined)	20	16	31	14	16	32	–	25	50
